Assay results published in patent publication US5370770A, “Method for deinking printed waste paper using soybean peroxidase” (priority 1992, dated 1994).

Assays:
[1] = Half-wave redox potential of substrates; format: physicochemical; conditions: redox potential of substrate
Soybean Peroxidase (SBP) = Soybean Peroxidase (SBP) (Glycine max, UniProt O22443); experiment: Oxidation of methoxybenzene substrates by soybean peroxidase (redox potential comparison); format: biochemical; conditions: absorbance change at substrate λmax
Soybean Peroxidase (SBP), sequence (O22443 27-332): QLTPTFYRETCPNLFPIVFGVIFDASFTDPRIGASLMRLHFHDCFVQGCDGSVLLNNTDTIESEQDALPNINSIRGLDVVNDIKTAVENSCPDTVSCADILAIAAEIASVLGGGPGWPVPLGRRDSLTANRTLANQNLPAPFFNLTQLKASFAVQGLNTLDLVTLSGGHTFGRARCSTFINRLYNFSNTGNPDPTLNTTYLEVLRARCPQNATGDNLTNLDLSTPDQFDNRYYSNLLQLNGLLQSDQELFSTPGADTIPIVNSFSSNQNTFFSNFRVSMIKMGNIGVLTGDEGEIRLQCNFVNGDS
From the text: (§1) Any of a variety of peroxidases can be used in the present invention.
(§2) *all values in Δ Abs/(mg enzymemin).
**curve of ΔAbs/time slopes upward as reaction proceeds.

[2] = molecular target: T1, Horseradish Peroxidase (HRP) (Armoracia rusticana, UniProt P00433); experiment: Oxidation of methoxybenzene substrates by horseradish peroxidase (redox potential comparison); format: biochemical; conditions: absorbance change at substrate λmax
T1 sequence (P00433 31-353): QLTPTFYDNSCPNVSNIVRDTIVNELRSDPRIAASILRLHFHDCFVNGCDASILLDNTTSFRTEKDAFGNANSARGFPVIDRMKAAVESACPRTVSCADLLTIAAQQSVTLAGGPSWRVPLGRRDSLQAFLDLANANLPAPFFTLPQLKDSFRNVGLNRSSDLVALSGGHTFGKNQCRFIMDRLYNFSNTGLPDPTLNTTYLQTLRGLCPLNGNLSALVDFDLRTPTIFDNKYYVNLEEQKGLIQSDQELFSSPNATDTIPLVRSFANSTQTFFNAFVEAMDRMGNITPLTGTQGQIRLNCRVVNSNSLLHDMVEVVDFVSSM
From the text: as §1, §2

Row | SMILES | E1/2 (V) [1] | SBP (Soybean Peroxidase (SBP)) | HRP [2]
1 | COc1cc(OC)c(OC)c(OC)c1 [1,2,3,5-tetramethoxybenzene] | 1.09 V | 3.02 Δ Abs/(mg enzymemin) | 0.30 Δ Abs/(mg enzymemin)
2 | COc1ccc(OC)c(OC)c1 [1,2,4-trimethoxybenzene] | 1.12 V | 9.23 Δ Abs/(mg enzymemin) | 1.64 Δ Abs/(mg enzymemin)
3 | COc1ccc(OC)cc1 [1,4-dimethoxybenzene] | 1.34 V | 0.072 Δ Abs/(mg enzymemin) | 0 Δ Abs/(mg enzymemin)
4 | COc1c(OC)c(OC)c(OC)c(OC)c1OC [hexamethoxybenzene] | 1.24 V | 0.22 Δ Abs/(mg enzymemin) | 0 Δ Abs/(mg enzymemin)
5 | COc1cc(OC)c(OC)c(OC)c1OC [pentamethoxybenzene] | 1.07 V | 8.76 Δ Abs/(mg enzymemin) | 2.50 Δ Abs/(mg enzymemin)
